Read-outs that look alike come from different tables or passages of the source.

Consider four compounds from patent US11981658B2, “Substituted aminopyridine compounds as EGFR inhibitors” (YUHAN CORPORATION, priority 2021, dated 2024).

One experiment addresses EGFR Del19/T790M/C797S (Homo sapiens, UniProt P00533, C797S/DEL746-750/T790M). Nature of the experiment: Biochemical EGFR kinase inhibition assay (Lance Ultra TR-FRET), triple mutant del19/T790M/C797S. A digest of the protocol:
(§1)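 Kinase activity is measured by TR-FRET phosphopeptide detection. Compounds span 0.003 μM to 10 μM; the 1 h reaction at room temperature is quenched with EDTA, then labelled antibody (2 nM) is incubated 60 min before reading.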
In general terms: Time-resolved FRET reads energy transfer from a long-lived donor to a nearby acceptor.

Another experiment concerns the target EGFR L858R/T790M/C797S (Homo sapiens, UniProt P00533, C797S/L858R/T790M). Nature of the experiment: Biochemical EGFR kinase inhibition assay (Lance Ultra TR-FRET), triple mutant L858R/T790M/C797S. Summed up: as §1
A further experiment has as its target EGFR Del19/C797S (Homo sapiens, UniProt P00533, C797S/DEL746-750). Nature of the experiment: Biochemical EGFR kinase inhibition assay (Lance Ultra TR-FRET), double mutant del19/C797S. Summed up: as §1
In another experiment the target is EGFR L858R/C797S (Homo sapiens, UniProt P00533, C797S/L858R). As to the kind of experiment: Biochemical EGFR kinase inhibition assay (Lance Ultra TR-FRET), double mutant L858R/C797S. How it is done: Biochemical EGFR kinase assays were conducted using Lance Ultra time-resolved fluorescence resonance energy transfer (TR-FRET) technology from Perkin-Elmer. Compounds of the invention were initially diluted to 20 mM in 100% DMSO for storage and made into kinase buffer solution to create a compound concentration ranging from 0.003 μM and 10 μM.
Each kinase reactions were incubated at room temperature for 1 hour and then stopped by the addition of 4 μL of stop solution (10 mM EDTA). The specific Europium-labeled-anti-phosphopeptide antibody (PerkinElmer, AD0069) diluted in LANCE detection buffer was then added to a final concentration of 2 nM. After 60 minutes incubation at room temperature the LANCE signal was measured on an EnVision Multilabel Reader (Perkin-Elmer). Excitation wavelength was set at 320 nm and emission monitored at 615 nm (donor) and 665 nm (acceptor). The IC50 values were determined using GraphPad prism software (GraphPad Software, Inc., San Diego, CA, USA).

The next experiment has as its target EGFR wildtype (WT) (Homo sapiens, UniProt P00533). Nature of the experiment: Biochemical EGFR kinase inhibition assay (Lance Ultra TR-FRET), wildtype. A digest of the protocol: as §1
[1] abbreviates: IC50 Del19/T790M/C797S (nM), 100 μM ATP.
Setting [2] is: IC50 L858R/T790M/C797S (nM), 100 μM ATP.
Where [3] appears, read: IC50 Del19/C797S (nM), 100 μM ATP.
Where [4] appears, read: IC50 L858R/C797S (nM), 100 μM ATP.
Where [5] appears, read: Km ATP, read-out: IC50 Del19/T790M/C797S (nM), Km ATP.
The mark [6] stands for this setting: Km ATP, read-out: IC50 L858R/T790M/C797S (nM), Km ATP.
[7] abbreviates: Km ATP, read-out: IC50 Del19/C797S (nM), Km ATP.
Where [8] appears, read: Km ATP, read-out: IC50 L858R/C797S (nM), Km ATP.
[9] abbreviates: Km ATP, read-out: IC50 WT (nM), Km ATP.

EGFR Del19/C797S, sequence (P00533 with tags, fused parts or gaps DEL746-750/C797S): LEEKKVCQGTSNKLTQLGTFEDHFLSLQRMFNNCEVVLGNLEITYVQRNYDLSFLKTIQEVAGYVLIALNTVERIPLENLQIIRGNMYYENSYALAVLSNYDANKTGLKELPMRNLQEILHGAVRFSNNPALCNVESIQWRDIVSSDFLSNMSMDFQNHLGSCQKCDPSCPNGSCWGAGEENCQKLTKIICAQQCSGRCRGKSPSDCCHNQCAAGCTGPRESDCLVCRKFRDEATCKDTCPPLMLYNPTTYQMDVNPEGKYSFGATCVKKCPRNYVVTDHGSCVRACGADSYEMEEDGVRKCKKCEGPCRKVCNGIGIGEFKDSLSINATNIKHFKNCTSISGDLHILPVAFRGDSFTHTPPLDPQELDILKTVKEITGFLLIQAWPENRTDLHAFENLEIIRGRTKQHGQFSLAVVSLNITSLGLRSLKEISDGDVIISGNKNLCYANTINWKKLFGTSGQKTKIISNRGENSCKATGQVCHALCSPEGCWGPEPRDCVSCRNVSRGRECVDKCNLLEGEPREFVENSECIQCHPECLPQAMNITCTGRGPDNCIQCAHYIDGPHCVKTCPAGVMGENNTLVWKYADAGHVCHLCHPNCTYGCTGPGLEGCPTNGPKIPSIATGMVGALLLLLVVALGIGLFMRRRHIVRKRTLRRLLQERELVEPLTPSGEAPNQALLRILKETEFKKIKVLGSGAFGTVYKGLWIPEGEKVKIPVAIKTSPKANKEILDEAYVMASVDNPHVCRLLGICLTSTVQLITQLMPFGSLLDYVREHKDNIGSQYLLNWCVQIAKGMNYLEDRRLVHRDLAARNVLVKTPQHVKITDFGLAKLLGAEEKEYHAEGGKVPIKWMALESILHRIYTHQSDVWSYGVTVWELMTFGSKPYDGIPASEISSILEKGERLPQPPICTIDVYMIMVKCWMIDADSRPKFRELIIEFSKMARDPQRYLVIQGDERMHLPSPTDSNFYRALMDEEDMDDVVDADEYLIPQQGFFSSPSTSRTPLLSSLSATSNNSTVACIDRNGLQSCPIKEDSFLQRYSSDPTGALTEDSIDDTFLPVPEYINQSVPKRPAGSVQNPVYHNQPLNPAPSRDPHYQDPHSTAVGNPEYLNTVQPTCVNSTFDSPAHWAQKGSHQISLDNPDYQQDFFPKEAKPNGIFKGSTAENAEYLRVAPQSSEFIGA
EGFR wildtype (WT), sequence (P00533 25-1210): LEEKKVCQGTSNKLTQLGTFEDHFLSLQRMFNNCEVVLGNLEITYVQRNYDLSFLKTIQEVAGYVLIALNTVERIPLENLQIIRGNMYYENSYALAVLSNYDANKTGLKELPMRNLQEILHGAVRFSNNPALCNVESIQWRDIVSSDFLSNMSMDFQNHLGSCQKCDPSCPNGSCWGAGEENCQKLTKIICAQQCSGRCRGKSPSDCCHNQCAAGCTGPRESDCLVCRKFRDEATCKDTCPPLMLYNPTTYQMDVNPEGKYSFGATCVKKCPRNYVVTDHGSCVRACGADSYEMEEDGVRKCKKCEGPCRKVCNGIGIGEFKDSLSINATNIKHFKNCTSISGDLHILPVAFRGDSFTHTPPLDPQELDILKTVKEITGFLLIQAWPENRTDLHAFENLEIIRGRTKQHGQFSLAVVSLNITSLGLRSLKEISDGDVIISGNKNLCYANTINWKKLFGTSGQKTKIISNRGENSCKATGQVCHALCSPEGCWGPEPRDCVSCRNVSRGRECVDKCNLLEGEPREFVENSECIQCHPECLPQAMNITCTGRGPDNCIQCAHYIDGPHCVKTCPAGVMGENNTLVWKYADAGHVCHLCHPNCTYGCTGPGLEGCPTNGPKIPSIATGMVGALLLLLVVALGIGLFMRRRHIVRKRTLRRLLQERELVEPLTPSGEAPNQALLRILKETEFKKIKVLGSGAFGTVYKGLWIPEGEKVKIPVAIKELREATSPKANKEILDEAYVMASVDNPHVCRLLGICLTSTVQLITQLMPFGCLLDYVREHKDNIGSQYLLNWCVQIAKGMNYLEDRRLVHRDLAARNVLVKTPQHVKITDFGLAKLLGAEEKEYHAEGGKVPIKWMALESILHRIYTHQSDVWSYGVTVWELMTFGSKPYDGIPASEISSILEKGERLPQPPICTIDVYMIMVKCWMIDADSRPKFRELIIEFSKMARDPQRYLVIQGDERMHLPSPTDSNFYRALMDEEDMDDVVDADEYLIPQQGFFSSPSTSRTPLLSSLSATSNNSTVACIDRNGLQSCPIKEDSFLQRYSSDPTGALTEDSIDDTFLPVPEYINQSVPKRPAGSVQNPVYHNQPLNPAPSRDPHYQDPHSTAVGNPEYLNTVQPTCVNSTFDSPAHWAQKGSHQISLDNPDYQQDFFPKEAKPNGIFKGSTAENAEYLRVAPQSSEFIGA
EGFR L858R/T790M/C797S, sequence (P00533 25-1210 T790M/C797S/L858R): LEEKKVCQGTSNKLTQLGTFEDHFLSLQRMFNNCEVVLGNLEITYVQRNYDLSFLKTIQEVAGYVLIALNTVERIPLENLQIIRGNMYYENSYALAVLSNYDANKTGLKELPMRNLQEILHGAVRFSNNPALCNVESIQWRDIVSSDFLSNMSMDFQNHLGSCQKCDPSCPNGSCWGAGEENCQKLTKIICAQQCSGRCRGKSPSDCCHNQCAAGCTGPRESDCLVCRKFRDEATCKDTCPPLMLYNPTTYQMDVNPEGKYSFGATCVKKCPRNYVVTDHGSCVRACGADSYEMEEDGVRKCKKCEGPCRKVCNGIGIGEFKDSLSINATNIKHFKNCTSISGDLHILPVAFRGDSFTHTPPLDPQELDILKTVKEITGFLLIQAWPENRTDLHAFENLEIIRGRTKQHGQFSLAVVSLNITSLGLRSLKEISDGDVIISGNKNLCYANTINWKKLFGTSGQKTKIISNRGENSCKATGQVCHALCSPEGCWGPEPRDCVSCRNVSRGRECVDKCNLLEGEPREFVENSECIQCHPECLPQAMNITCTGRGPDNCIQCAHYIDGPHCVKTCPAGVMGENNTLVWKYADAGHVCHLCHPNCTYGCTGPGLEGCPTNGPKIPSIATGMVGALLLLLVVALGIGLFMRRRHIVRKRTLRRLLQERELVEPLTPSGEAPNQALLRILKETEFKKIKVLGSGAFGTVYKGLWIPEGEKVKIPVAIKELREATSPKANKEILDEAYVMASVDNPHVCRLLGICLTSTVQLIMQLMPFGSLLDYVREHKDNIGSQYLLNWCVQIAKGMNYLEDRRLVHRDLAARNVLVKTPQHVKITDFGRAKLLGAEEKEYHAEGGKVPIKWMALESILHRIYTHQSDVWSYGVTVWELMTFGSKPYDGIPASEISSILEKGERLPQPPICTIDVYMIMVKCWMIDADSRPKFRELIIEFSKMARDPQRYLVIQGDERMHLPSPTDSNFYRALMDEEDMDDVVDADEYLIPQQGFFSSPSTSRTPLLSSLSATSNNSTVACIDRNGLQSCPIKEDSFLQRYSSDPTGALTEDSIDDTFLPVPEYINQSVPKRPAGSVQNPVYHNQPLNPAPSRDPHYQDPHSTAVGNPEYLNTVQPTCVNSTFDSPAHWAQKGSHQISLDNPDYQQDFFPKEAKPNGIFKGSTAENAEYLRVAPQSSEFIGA
EGFR Del19/T790M/C797S, sequence (P00533 with tags, fused parts or gaps DEL746-750/T790M/C797S): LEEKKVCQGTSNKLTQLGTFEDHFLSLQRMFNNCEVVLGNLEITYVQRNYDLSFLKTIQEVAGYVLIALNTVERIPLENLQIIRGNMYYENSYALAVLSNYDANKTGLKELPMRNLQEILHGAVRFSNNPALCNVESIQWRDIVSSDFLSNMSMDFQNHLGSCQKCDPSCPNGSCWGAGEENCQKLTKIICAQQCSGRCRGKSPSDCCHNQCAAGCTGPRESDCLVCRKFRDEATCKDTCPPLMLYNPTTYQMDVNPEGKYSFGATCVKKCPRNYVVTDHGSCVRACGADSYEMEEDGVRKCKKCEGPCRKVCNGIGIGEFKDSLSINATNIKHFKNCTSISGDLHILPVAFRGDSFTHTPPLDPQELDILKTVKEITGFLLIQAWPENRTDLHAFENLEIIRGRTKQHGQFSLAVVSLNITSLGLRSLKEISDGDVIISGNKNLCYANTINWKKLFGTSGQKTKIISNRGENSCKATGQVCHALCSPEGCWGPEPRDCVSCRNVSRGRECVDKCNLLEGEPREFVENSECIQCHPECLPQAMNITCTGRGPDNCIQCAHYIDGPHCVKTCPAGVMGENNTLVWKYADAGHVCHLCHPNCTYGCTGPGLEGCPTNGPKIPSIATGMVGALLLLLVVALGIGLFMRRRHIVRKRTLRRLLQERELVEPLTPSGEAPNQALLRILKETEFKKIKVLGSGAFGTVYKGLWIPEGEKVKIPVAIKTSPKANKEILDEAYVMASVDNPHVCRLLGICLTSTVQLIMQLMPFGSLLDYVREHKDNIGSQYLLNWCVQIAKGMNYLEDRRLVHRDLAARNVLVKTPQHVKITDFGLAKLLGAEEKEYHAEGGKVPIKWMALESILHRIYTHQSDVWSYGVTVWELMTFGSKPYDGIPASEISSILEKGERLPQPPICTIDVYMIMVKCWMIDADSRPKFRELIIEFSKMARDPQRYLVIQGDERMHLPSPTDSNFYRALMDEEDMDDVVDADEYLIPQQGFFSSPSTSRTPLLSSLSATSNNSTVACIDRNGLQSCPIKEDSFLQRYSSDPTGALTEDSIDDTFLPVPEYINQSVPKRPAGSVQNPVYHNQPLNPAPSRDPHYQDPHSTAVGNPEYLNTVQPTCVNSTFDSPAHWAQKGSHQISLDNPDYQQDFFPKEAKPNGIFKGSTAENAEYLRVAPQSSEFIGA

As for `CC1(CO)CCN(c2cc(Nc3ccnc(-c4cnn(S(=O)(=O)C5CC5)c4)n3)ncc2C#Cc2ccc(CN3CCOCC3)cc2)CC1` [Example 253, (1-(2-((2-(1-(Cyclopropylsulfonyl)-1H-pyrazol-4-yl)pyrimidin-4-yl)amino)-5-((4-(morpholinomethyl)phenyl)ethynyl)pyridin-4-yl)-4-methylpiperidin-4-yl)methanol], the IC50 was 5.3 nM at EGFR Del19/T790M/C797S (ATP at Km, read-out: IC50 Del19/T790M/C797S (nM), Km ATP); 3.3 nM against EGFR Del19/T790M/C797S (setting [1]); 3.1 nM on EGFR L858R/T790M/C797S (ATP at Km, read-out: IC50 L858R/T790M/C797S (nM), Km ATP); 4.4 nM against EGFR L858R/T790M/C797S (setting [2]); 4.2 nM at EGFR Del19/C797S (ATP at Km, read-out: IC50 Del19/C797S (nM), Km ATP); 7.1 nM against EGFR Del19/C797S (setting [3]). In addition, the IC50 was 9.8 nM at EGFR L858R/C797S (ATP at Km, read-out: IC50 L858R/C797S (nM), Km ATP); 81.2 nM on EGFR L858R/C797S (setting [4]); 23.9 nM on EGFR wildtype (WT) (ATP at Km, read-out: IC50 WT (nM), Km ATP); > 10000 nM at EGFR wildtype (WT) (IC50 WT (nM), 100 μM ATP).
Turning to `O=S(=O)(C1CC1)n1cc(-c2nccc(Nc3cc(NC4CCC(CO)CC4)c(C#CC4(F)CCOC4)cn3)n2)cn1` (stereo not shown) [Example 434, ((1s,4s)-4-((2-((2-(1-(Cyclopropylsulfonyl)-1H-pyrazol-4-yl)pyrimidin-4-yl)amino)-5-((3-fluorotetrahydrofuran-3-yl)ethynyl)pyridin-4-yl)amino)cyclohexyl)methanol], the IC50 was determined as 0.3 nM at EGFR Del19/T790M/C797S (setting [1]); 0.4 nM at EGFR Del19/T790M/C797S (setting [5]); 0.5 nM on EGFR L858R/T790M/C797S (setting [2]); 0.2 nM at EGFR L858R/T790M/C797S (setting [6]); 5.2 nM at EGFR Del19/C797S (setting [3]); 2.3 nM at EGFR Del19/C797S (setting [7]). Moreover, the IC50 against EGFR L858R/C797S (setting [4]) came out at 125 nM; on EGFR L858R/C797S (setting [8]), 2.4 nM; on EGFR wildtype (WT) (IC50 WT (nM), 100 μM ATP) it was 8890 nM; on EGFR wildtype (WT) (setting [9]) it was 21.2 nM.
As to `CC1(C#Cc2cnc(Nc3ccnc(-c4cnn(S(=O)(=O)C5CC5)c4)n3)cc2N[C@H]2CC[C@@H](O)CC2)CC1` [Example 359, (1s,4s)-4-((2-((2-(1-(Cyclopropylsulfonyl)-1H-pyrazol.-4-yl)pyrimidin-4-yl)amino)-5-((1-methylcyclopropyl)ethynyl)pyridin-4-yl)amino)cyclohexan-1-ol], the IC50 on EGFR Del19/T790M/C797S (setting [1]) came out at 1.6 nM; on EGFR Del19/T790M/C797S (setting [5]), 0.9 nM; on EGFR L858R/T790M/C797S (setting [2]), 1.5 nM; at EGFR L858R/T790M/C797S (setting [6]), 0.4 nM; at EGFR Del19/C797S (setting [3]), 2.6 nM; on EGFR Del19/C797S (setting [7]), 2.2 nM. The IC50 against EGFR L858R/C797S (setting [4]) is 55.1 nM; on EGFR L858R/C797S (setting [8]), 3.6 nM; on EGFR wildtype (WT) (IC50 WT (nM), 100 μM ATP), > 10000 nM; on EGFR wildtype (WT) (setting [9]), 26.7 nM.
As for `CC1(CO)CCN(c2cc(Nc3ccnc(-c4cnn(S(=O)(=O)C5CC5)c4)n3)ncc2C#CC2CCO[C@H]2C(F)(F)F)CC1` (stereo partly drawn) [Example 421, (1-(2-((2-(1-(Cyclopropylsulfonyl)-1H-pyrazol-4-yl)pyrimidin-4-yl)amino)-5-(((2R)-2-(trifluoromethyl)tetrahydrofuran-3-yl)ethynyl)pyridin-4-yl)-4-methylpiperidin-4-yl)methanol], the IC50 on EGFR Del19/T790M/C797S (setting [1]) came to 1.8 nM; on EGFR Del19/T790M/C797S (setting [5]), 1.5 nM; against EGFR L858R/T790M/C797S (setting [2]) it was 2.3 nM; on EGFR L858R/T790M/C797S (setting [6]), 0.8 nM; against EGFR Del19/C797S (setting [3]) it was 5.8 nM; at EGFR Del19/C797S (setting [7]), 4 nM. Also, the IC50 is 117 nM against EGFR L858R/C797S (setting [4]); 17.2 nM at EGFR L858R/C797S (setting [8]); > 10000 nM against EGFR wildtype (WT) (IC50 WT (nM), 100 μM ATP); 35.1 nM on EGFR wildtype (WT) (setting [9]).
